Laboratory results as given in patent US11440907B1 (Merck Patent GmbH, priority 2018, dated 2022).

Columns and labels:
[1] = tested on: β-catenin-TCF-mediated reporter transcription activity in Colo 205 cells; assay: Colo 205 reporter assay (TCF/LEF promoter-driven firefly luciferase); assay type: cell-based; details: Homo sapiens; Colo 205 TCF/LEF luciferase reporter, 5 hours after compound addition, 384 well; read-out: Colo205 IC50
[2] = tested on: XBP1(u)-luciferase splicing reporter in HepG2 hepatoma cells; assay: HepG2 XBP1 reporter assay (XBP1(u)-Luc); assay type: cell-based; details: Homo sapiens, 6 hours after compound addition; for IC50: Table 4; for EC50: Table 3, read-out: XBP1-luc HepG2 1 EC50
[3] = tested on: NCI-H929 (Multiple myeloma cells); assay: Cell viability (ATPLite) in NCI-H929; assay type: cell-based; details: Homo sapiens, 96 hours
Summary of the method: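 Cells were seeded at 500/well and, after 24 h, treated with compound at 100 nM or 2 uM for 0 or 96 hours. Viability was measured by ATPLite cellular ATP read-out.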

[4] = tested on: DU4475 (breast cancer cells); assay: Cell viability (ATPLite) in DU4475; assay type: cell-based; details: Homo sapiens, DU-4475, 96 hours
Protocol: Cells were removed from liquid nitrogen storage, thawed and expanded in appropriate growth media. Once expanded, cells were seeded in 384-well tissue culture treated plates at 500 cells per well. After 24 hours, cells were treated for either 0 hours or treated for 96 hours with a testing compound (at the concentrations of 100 nM and 2 uM). At the end of either 0 hours or 96 hours, cell status was analyzed using ATPLite (Perkin Elmer) to assess the biological response of cells to the testing compound.

[5] = tested on: intracellular calcium flux in Colo-205 cells; assay: Calcium flux assay (FLIPR Calcium 5 Assay Kit, FLIPR3); assay type: cell-based; details: Homo sapiens, 0.6 h, calcium flux measured over 36 minutes, read-out: Colo 205 Calcium Flux assay 384w Boston Ca assay FLIPR3 Colo EC50
Protocol: Compounds described herein induced ER stress by causing intracellular calcium flux. Calcium flux was measured in Colo-205 cells using the FLIPR® Calcium 5 Assay Kit according to manufacturer's protocol (Molecular Devices, Cat. #R8186) on a FLIPR3 system (Molecular Devices). Calcium flux is measured over 36 minutes. The Colo-205 calcium flux assay data are summarized in Table 3: A<0.6 μM; 0.6 μM≤B<2.0 μM; 2.0 μM≤C<10.0 μM; D≥10.0 μM.

IC50 [1] [nM]	melting point [°C]	IC50 [2] [nM]	IC50 [3] [nM]	IC50 [4] [nM]	EC50 [2] [nM]	EC50 [5] [nM]	Structure (SMILES)
300 to 1000	220						COc1ccc(Cl)c(C2COCCCN2c2cc(C)nc(N)n2)c1 (racemic) [I-118, (+/−)-4-(3-(2-chloro-5-methoxyphenyl)-1,4-oxazepan-4-yl)-6-methylpyrimidin-2-amine]
	120						Cc1cc(N2CCCOC[C@@H]2c2cc(S(C)(=O)=O)ccc2Cl)nc(N)n1 (single isomer, unassigned) [I-103]
	156 to 160						Cc1cc(N2CCCOC[C@H]2c2ccccc2Cl)nc(N)n1 (single isomer, unassigned) [I-30]
300 to 1000	88 to 90						COc1ccc(Cl)c(C2CCCCCN2c2cc(C)nc(N)n2)c1 (racemic) [I-117, (+/−)-4-(2-(2-chloro-5-methoxyphenyl)azepan-1-yl)-6-methylpyrimidin-2-amine]
300 to 1000	110						Cc1cc(N2CCCOCC2c2cc(C(O)C(F)(F)F)ccc2Cl)nc(N)n1 (racemic) [I-134, (+/−)-1-(3-(4-(2-amino-6-methylpyrimidin-4-yl)-1,4-oxazepan-3-yl)-4-chlorophenyl)-2,2,2-trifluoroethan-1-ol]
300 to 1000	138 to 140						Cc1cc(N2CCCOCC2c2cc(N3CCCC3=O)ccc2Cl)nc(N)n1 (racemic) [I-119, 1-(3-(4-(2-amino-6-methylpyrimidin-4-yl)-1,4-oxazepan-3-yl)-4-chlorophenyl)pyrrolidin-2-one]
300 to 1000	100 to 102				< 600	< 600	Cc1cc(N2CCCOC[C@@H]2c2ccc(Br)cc2Cl)nc(N)n1 (single isomer, unassigned) [I-201]
	278 to 280						Cc1cc(N2CCCN(S(C)(=O)=O)CC2c2ccccc2Cl)nc(N)n1 (racemic) [I-28, (+/−)-4-(2-(2-chlorophenyl)-4-(methylsulfonyl)-1,4-diazepan-1-yl)-6-methylpyrimidin-2-amine]
300 to 1000	180				600 to 2000		CCNc1cc(C2COCCCN2c2cc(C)nc(N)n2)c(Cl)cc1F (racemic) [I-272, (+/−)-4-[3-[2-chloro-5-(ethylamino)-4-fluoro-phenyl]-1,4-oxazepan-4-yl]-6-methyl-pyrimidin-2-amine]
	220						Cc1cc(N2CCCOC[C@H]2c2ccc(C#N)cc2Cl)nc(N)n1 (single isomer, unassigned) [I-96]
< 300	160				< 600		Cc1cc(N2CCCOC[C@@H]2c2cc(NS(C)(=O)=O)ccc2Cl)nc(N)n1 (single isomer, unassigned) [I-161]
< 300	188 to 190				< 600		Cc1cc(N2CCCOCC2c2ccc(NC(=O)C(F)F)cc2Cl)nc(N)n1 (racemic) [I-278, (+/−)-N-(4-(4-(2-amino-6-methylpyrimidin-4-yl)-1,4-oxazepan-3-yl)-3-chlorophenyl)-2,2-difluoroacetamide]
	107 to 109						COc1cc(C2CCCCCN2c2cc(C)nc(N)n2)c(OC)cn1 (racemic) [I-116, (+/−)-4-[2-(2,5-dimethoxy-4-pyridyl)azepan-1-yl]-6-methyl-pyrimidin-2-amine]
300 to 1000	95 to 97						Cc1cc(N2CCCOCC2c2cc(NC(=O)CN(C)C)ccc2Cl)nc(N)n1 (racemic) [I-168, (+/−)-N-[3-[4-(2-amino-6-methyl-pyrimidin-4-yl)-1,4-oxazepan-3-yl]-4-chloro-phenyl]-2-(dimethylamino)acetamide]

The remaining lines, values behind:

Structure (SMILES)	IC50 [1] [nM]	melting point [°C]	IC50 [2] [nM]	IC50 [3] [nM]	IC50 [4] [nM]	EC50 [2] [nM]	EC50 [5] [nM]
Cc1cc(N2CCCOCC2c2cc3c(cc2Cl)OCCO3)nc(N)n1 (stereo not shown) [C-6]			600 to 2000	1000 to 10000	< 1000		
Cc1cc(N2CCCOCC2c2cc(CS(C)(=O)=O)ccc2Cl)nc(N)n1 (stereo not shown) [C-12, 4-[3-(2-Chloro-5-methanesulfonylmethyl-phenyl)-[1,4]oxazepan-4-yl]-6-methyl-pyrimidin-2-ylamine]			600 to 2000	1000 to 10000	< 1000		
COc1cc(Cl)c([C@H]2COCCCN2c2cc(C)nc(N)n2)cc1O [C-36]			< 600	< 1000	< 1000		
Cc1cc(N2CCCOC[C@@H]2c2ccc(N3CCC(C)(O)CC3)cc2Cl)nc(N)n1 [C-151]			< 600	< 1000	< 1000		
Cc1cc(N2CCCOCC2c2cc3c(cc2Cl)NC(=O)CO3)nc(N)n1 (stereo not shown) [C-35]			< 600	< 1000	< 1000		
COc1cc(Cl)c(C2COCCCN2c2cc(C)nc(N)n2)cc1OC (stereo not shown) [C-15]			600 to 2000	< 1000	< 1000		
Cc1cc(N2CCCOCC2c2cc3c(cc2Cl)N(C)CC3)nc(N)n1 (stereo not shown) [C-32]			< 600	< 1000	< 1000		
CCOc1cc(Cl)c(C2COCCCN2c2cc(C)nc(N)n2)cc1Cl (stereo not shown) [C-41]			< 600	10000 to 25000	< 1000		
Cc1cc(N2CCCOCC2c2cc(F)c(C)cc2Cl)nc(N)n1 (stereo not shown) [C-2]			600 to 2000	1000 to 10000	1000 to 10000		
COc1cc(C2COCCCN2c2cc(C)nc(N)n2)c(Cl)cc1OC(C)C (stereo not shown) [C-24]			< 600	1000 to 10000	< 1000		
CCOc1cc(Cl)c(C2COCCCN2c2cc(C)nc(N)n2)cc1OCC (stereo not shown) [C-40]			< 600	1000 to 10000	< 1000		
Cc1cc(N2CCCOCC2c2ccc(OC[C@@H](O)CO)cc2Cl)nc(N)n1 (stereo partly drawn) [C-42, (S)-3-{4-[4-(2-Amino-6-methyl-pyrimidin-4-yl)-[1,4]oxazepan-3-yl]-3-chloro-phenoxy}-propane-1,2-diol]			600 to 2000	< 1000	< 1000		
Cc1cc(N2CCCOCC2c2ccc(CS(C)(=O)=O)cc2F)nc(N)n1 (stereo not shown) [C-11, 4-[3-(2-Fluoro-4-methanesulfonylmethyl-phenyl)-[1,4]oxazepan-4-yl]-6-methyl-pyrimidin-2-ylamine]			600 to 2000	< 1000	< 1000		
Cc1cc(N2CCCOCC2c2cc(C)c(N)cc2Cl)nc(N)n1 (stereo not shown) [C-16]			< 600	< 1000	< 1000		
Cc1cc(N2CCCOCC2c2cc(C(F)(F)F)c(N)cc2Cl)nc(N)n1 (stereo not shown) [C-31]			< 600	1000 to 10000	< 1000		
COc1cc(Cl)c(C2COCCCN2c2cc(C)nc(N)n2)cc1Cl (stereo not shown) [C-19]			600 to 2000	1000 to 10000	< 1000		
Cc1cc(N2CCCOCC2c2cc(F)c(F)cc2Cl)nc(N)n1 (stereo not shown) [C-4]			600 to 2000	1000 to 10000	1000 to 10000		
CCOc1cc(Cl)c(C2COCCCN2c2cc(C)nc(N)n2)cc1OC (stereo not shown) [C-23]			< 600	< 1000	< 1000		
Cc1cc(N2CCCOCC2c2cc3c(cc2Cl)NCC3)nc(N)n1 (stereo not shown) [C-1]			< 600	< 1000	< 1000		
COc1cc(C2COCCCN2c2cc(C)nc(N)n2)c(Cl)cc1O (stereo not shown) [C-14]			600 to 2000	1000 to 10000	< 1000		
Cc1cc(N2CCCOCC2c2cc(F)c(O)cc2Cl)nc(N)n1 (stereo not shown) [C-30]			600 to 2000	1000 to 10000	1000 to 10000		
